Experimental data: patent US20070219180A1, “Muscle Relaxtion Accelerator and Therapeutic Agent for Muscular Tissue Diseases Such as Muscle Relaxation Failure” (priority 2004, published 2007)

System: binding of troponin I to the actin-tropomyosin complex
Assay: Experiment 4 and comparison example: co-precipitation (binding) of troponin I with the actin-tropomyosin complex in the presence of EGTA
Parameters: species or system swine
Conditions: 10 mM EGTA, 100,000×g 120 min 25° C.
Protocol: The actin-tropomyosin complex and the troponin C-I complex are usually detected by analyzing the precipitate obtained by ultracentrifugation of a mixture containing the actin-tropomyosin complex and the troponin C-I complex for 120 minutes at 100,000×g at 25° C. The binding of the troponin C-I complex to the actin-tropomyosin complex in muscle tissues can be confirmed by the detected actin-tropomyosin complex and the detected troponin C-I complex. For example, when a mixture containing the actin-tropomyosin complex and the troponin C-I complex is ultracentrifuged in the presence of EGTA as a calcium chelating agent (in other words, in the absence of calcium ions), the actin-tropomyosin complex and the troponin C-I complex combine each other to precipitate together. Detection of troponin I in the precipitate using SDS-gel electrophoresis allows confirmation that the precipitate contains a complex formed by the actin-tropomyosin complex and the troponin C-I complex.
A precipitate due to binding of the actin-tropomyosin complex and troponin I is usually not formed when a mixture containing the actin-tropomyosin complex, troponin and propranolol (a β-blocker) used as a therapeutic agent for heart failure is ultracentrifuged at 100,000×g for 120 minutes 25° C.
Swine muscle-derived actin, chicken gizzard-derived tropomyosin and swine myocardium-derived troponin used in this experiment were purchased from Sigma-Aldrich Corporation, and other unspecified reagents used in this experiment were purchased from Wako Pure Chemical Industries Ltd.
A 500 μl sample was prepared by adding 4.2 μg of actin, 2.1 μg of tropomyosin and 14 μg of troponin to 500 μl of a reaction solution containing 60 mM KCl, 20 mM MOPS (3-morpholinopropanesulfonic acid), 2 mM of MgCl2, 0.05 μg of pepstatin A, and 15 mM 2-mercaptoethanol. After centrifugation of this sample at 2,000×g for 10 minutes at 25° C., the precipitate was removed and the resulting supernatant was distributed to separate test tubes containing 10 mM of EGTA, and each tube was determined as a test sample.
Each test sample was reacted for 120 minutes at 25° C. and centrifuged at 100,000×g for 120 minutes at 25° C., and the supernatants were removed. After reaction solution was gently added to the removed precipitate so as not to suspend the precipitate, the precipitate was again removed by suction, washed, and determined as a test precipitate.
A sample buffer for polyacrylamide gel electrophoresis (SDS-PAGE) was added to each washed test precipitate and mixed well to suspend the test precipitate. The resulting suspension was electrophoresized on a gel (PAG MINI “No. 1” 10/20) for about 1 hour at 40 mA. After electrophoresis, the suspension was silver-stained using “Daiichi” 2D-silver staining reagent (Daiichi Pure Chemicals Co., Ltd), and washed with distilled water and dried. The amount of precipitate in each silver-stained protein band obtained by gel electrophoresis was quantitated using a densitometer.
The amounts of precipitate of troponin I in the second to fifth test precipitates were calculated as ratios of the amount of precipitate of troponin I in the first test precipitate, which was obtained without the compound (the concentration of the compound was 0 M).
The affinity of troponin I for the actin-tropomyosin complex was measured using the same method as in Experiment 4, but using propranolol (a β-blocker which is used as a therapeutic agent for heart failure) for comparison with the compound in the invention.
A 500 μl sample was prepared by adding 4.2 μg of actin, 2.1 μg of tropomyosin and 14 μg of troponin I to 500 μl of a reaction solution containing 60 mM KCl, 20 mM MOPS (3-morpholinopropanesulfonic acid), 2 mM MgCl2, 0.05 μg of pepstatin A, and 15 mM 2-mercaptoethanol. […]

Precipitate of troponin I (ratio to the sample without drug) (drug concentration 10^−4 mol): 2.8
Precipitate of troponin I (ratio to the sample without drug) (drug concentration 10^−5 mol): 2.2
Precipitate of troponin I (ratio to the sample without drug) (drug concentration 10^−6 mol): 1.8
Precipitate of troponin I (ratio to the sample without drug) (drug concentration 10^−7 mol): 1.2
Compound: COc1ccc2c(c1)CN(C(=O)CCN1CCC(Cc3ccccc3)CC1)CCS2 [the compound, 4-[3-(4-benzylpiperidine-1-yl)propionyl]-7-methoxy-2,3,4,5-tetrahydro-1,4-benzothiazepine]
